Measurements reported in PubChem BioAssay AID602156 (GNF / Scripps Winzeler lab, 2011).
pIC50: −log10 of the molar value. Active and inactive are the calls of the source. No rule for the calls is given here.

tested on: P. yoelii liver stage in HepG2-A16-CD81EGFP, imaging; assay: exo-erythrocytic parasite development inhibition – imaging, Malaria Box, P. yoelii, HepG2-A16-CD81EGFP, dose response (AID 602156);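 also: infected cells exposed to compound for 48 hours before fixation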

Structure (SMILES) | pIC50 | IC50
CCOc1ccc(Nc2cc(=O)oc3ccccc23)cc1 | 6.30 | 
CCCCC(CC)C(=O)N1CCN(C(CC)c2nc3ccccc3c(=O)n2C)CC1 (centres undefined) | 6.64 | 
Fc1ccc(Nc2nc(NCc3ccco3)c3ccccc3n2)cc1 | 7.13 | 
CC1(C)N=C(N)N=C(N)N1c1ccc(Oc2ccc(Cl)cc2)c(Cl)c1 | 7.14 | 
O=C1c2ccccc2C2=Nc3ccccc3SC(c3cccc(F)c3)C12 (centres undefined) | 6.79 | 
CCOC(=O)C1=C(C)NC2=C(C(=O)C(C(=O)OCC)C(c3cccc(OC)c3)C2)C1c1cc(OC)c(OC)c(OC)c1 (centres undefined) | 6.63 | 
CC1(C)N=C(N)N=C(N)N1c1ccc(Cl)cc1 | 8.59 | 
Cc1ncc(CCCCN(C)C)c2c1[nH]c1ccccc12 | 5.56 | 
CCOc1ccc(NC(=O)C(C)Sc2nc3ccccc3[nH]2)cc1 (centres undefined) |  | > 10000 nM (inactive)
COc1ccccc1CNC(=O)c1nn(-c2ccc(Cl)cc2)c(=O)c2ccccc12 |  | > 10000 nM (inactive)
CCOC(=O)c1c(CSc2ccccc2)oc2cc(CN(C)C)c(O)c(Cl)c12 | 5.14 | 
CCc1noc(C)c1C(=O)NCCN1Cc2ccccc2OC(c2ccsc2)C1 (centres undefined) |  | > 10000 nM (inactive)
Oc1cccc2ccc(Nc3ccccn3)nc12 | 6.85 | 
CC[n+]1cc(-c2ccc(C)cc2)sc1C=C1Sc2ccccc2N1C | 8.35 | 
CCOC(=O)CN(N=O)C1=C(N2CC2)C(=O)c2ccccc2C1=O | 6.32 | 
c1ccc2cc3c(N4CCN(CCN5CCN(c6ccnc7cc8ccccc8cc67)CC5)CC4)ccnc3cc2c1 | 5.54 | 
OCCNc1nc(Nc2ccc(F)cc2)nc2ccccc12 | 6.87 | 
Cc1cn2c3ccccc3n(CCN3CCCC3)c2n1 | 5.97 | 
Cc1ccc(C2Sc3ccccc3NC3=C2C(=O)c2ccccc23)cc1 (centres undefined) | 6.56 | 
CCCN(CCC)CCCNc1ccc(C(=O)Nc2ccc(C)c(F)c2)cc1[N+](=O)[O-] | 6.19 | 
CCc1nc(N)nc(N)c1-c1ccc(Cl)cc1 | 8.67 | 
Nc1ccc(N2CCCCCC2)cc1 | 5.71 | 
CC(C)(C)OC(=O)N1CCC(c2c(C(=O)Nc3cccc(C(F)(F)F)c3)cnn2-c2ccc(F)cc2F)CC1 | 5.51 | 
Cc1ccc(-n2c(-c3ccccc3)cc(C=NNC(=O)c3cccc(-n4c(C)ccc4C)c3)c2-c2ccccc2)cc1 | 7.32 | 
Cc1ccc(-c2c[n+]3c(n2-c2ccc(C)cc2)CCCCC3)cc1 | 6.84 | 
CCCCCc1c(C)c(C#N)c2nc3ccccc3n2c1NCCN(CC)CC | 6.15 | 
OCCNc1nc(Nc2ccccc2)nc2ccccc12 | 7.32 | 

Structure (SMILES) | pIC50 | IC50
O=c1c2c([nH]c3ccccc13)CCCC2 | 6.30 | 
O=C(c1cccc([N+](=O)[O-])c1)c1ccc(Cl)c(Cl)c1 | 5.42 | 
Cc1ccnc(Nc2nc(-c3ccccn3)cs2)c1 | 7.02 | 
c1ccc(Cc2cc[n+](Cc3ccccc3)cc2)cc1 | 5.34 | 
COc1cccc(N2C(N)=NC(N)=NC2(C)C)c1 | 7.53 | 
O=C1C2=C(Nc3ccccc3SC2c2ccc(Br)cc2)c2ccccc21 (centres undefined) | 6.49 | 
C[C@@H]1CCC[C@@H](C[C@H]2Cc3cc(O)cc(O)c3C(=O)O2)O1 | 6.95 | 
CCCCc1c(CCC)c(=N)c2ccccc2n1C | 6.61 | 
Cc1cccc(C)c1N(CC(=O)NCc1ccco1)S(C)(=O)=O |  | > 10000 nM (inactive)
CCCC[n+]1ccccc1C=C1Sc2ccccc2N1CC | 7.96 | 
O=C1C2=C(Nc3ccccc3SC2c2cccs2)c2ccccc21 (centres undefined) | 7.04 | 
COc1cc(C(=O)N2N=C(c3c(-c4ccccc4)c4cc(Br)ccc4[nH]c3=O)CC2c2cccc([N+](=O)[O-])c2)cc(OC)c1OC (centres undefined) | 6.36 | 
O=c1c2c([nH]c3ccccc13)CCCCCCCCCC2 | 7.00 | 
O=C1c2ccccc2C2=Nc3ccccc3SC(c3ccccc3F)C12 (centres undefined) | 6.62 | 
O=C(Nc1ccc(C(F)(F)F)cc1)c1ccc(NCCCN2CCCCCC2)c([N+](=O)[O-])c1 | 6.35 | 
Cc1nc2ccccc2c(=O)n1-c1ccc([N+](=O)[O-])cc1 |  | > 10000 nM (inactive)
Cc1ccc(Nc2nc3c(N)nnc(N)c3nc2Nc2ccc(C)cc2)cc1 | 6.31 | 
CCCCCCCCn1c(C)[n+](C)c2cc(Cl)c(Cl)cc21 | 6.38 | 
CCCCOc1ccc(C2C3CCCC=C3C(C#N)=C(N)C2(C#N)C#N)cc1 (centres undefined) |  | > 10000 nM (inactive)
CCOC(=O)C1=C(C)NC2=C(C(=O)C(C(=O)OCC)C(c3ccccc3OC)C2)C1c1ccc([N+](=O)[O-])cc1 (centres undefined) | 6.47 | 
CCOC(=O)c1cn(CC)c2cc(N(C)CCc3ccc(OC)c(OC)c3)c(F)cc2c1=O | 7.38 | 
CN1CCN(c2ccc(Nc3c4ccccc4nc4ccccc34)cc2)CC1 | 6.26 | 
CCOC(=O)C1=C(C)NC2=C(C(=O)C(C(=O)OCC)C(c3ccccc3OC)C2)C1c1cc(OC)c(OC)c(OC)c1 (centres undefined) | 6.29 | 
CCCCCC[n+]1ccccc1/C=C/c1ccc(N(C)C)cc1 | 7.25 | 
Brc1ccc(-c2c[n+]3c(n2-c2ccccc2)SCC3)cc1 | 6.08 | 
CCCC1(CCC)NC(=S)N(c2ccc(C)c(C)c2)N1 |  | > 10000 nM (inactive)
CCCCCCCC[n+]1c(C)n(CC)c2cc(C(=O)OCC)ccc21 | 6.00 | 
